According to patent US7632830B2, “Lactam compounds and pharmaceutical use thereof” (Ajinomoto Co., Inc., priority 2000, dated 2009):

Test system: adipose cells of rats
Assay: Evaluation of the sugar-transporting activity (2-[14C(U)]-deoxy-D-glucose incorporation)
Type: cell-based
Settings: 100 μg/ml of each compound; evaluated on the basis of the reinforcing effect of insulin (100 nM); rat adipose cells
Experimental: After the decapitation and venesection of 6 male Wistar rats (body weight: 150 to 200 g), an incision was made in the abdomen of each rat to extract 6 g in total of epididymal adipose tissues. The tissues were finely cut into 2 mm×2 mm pieces in 6 ml of KRH (Krebs-Ringer Hepes, composition: 130 mM of sodium chloride, 4.7 mM of potassium chloride, 1.2 mM of potassium dihydrogenphosphate, 1.2 mM of magnesium sulfate, 1 mM of calcium chloride and 25 mM of Hepes, pH=7.6) containing 5% of BSA (bovine serum albumin). 24 mg of collagenase (type I) was added thereto and the digestion treatment was conducted for about 40 minutes to obtain about 6 ml of isolated adipose cells. The collagenase was removed by the buffer exchange. 2% BSA/KRH solution was added to the residue for the re-suspension to obtain 45 ml of an adipose cell suspension.
The sugar-transporting activity of the compounds of the present invention was evaluated with reference to a method described in a literature [Annual Review of Biochemistry, Vol. 55, p. 1059 (1986)]. In the test, 200 μl of the adipose cell suspension was poured in each polystyrene test tube, 100 μl of the solution of the test substance (by dilution of 10 mg/ml substance dimethyl sulfoxide solution with KRH) was added thereto, and the obtained mixture was shaken and then cultured at 37° C. for 30 minutes.
The sugar-transporting activity was evaluated by measuring the quantity of 2-[^14C(U)]-deoxy-D-glucose incorporated per a unit time. Namely, 2-[^14C(U)]-deoxy-D-glucose was added to the adipose cell suspension after the pre-culture (the final concentration: 0.5 μCi/sample). 5 minutes after, cytochalasin B (final concentration: 10 μM) was added to the mixture to terminate the sugar transportation. After forming a dinonyl phthalate layer, the obtained mixture was centrifuged to separate the adipose cells from the buffer. The quantity of 2-[^14C(U)]-deoxy-D-glucose contained in the adipose cell layer was determined with a liquid scintillation counter to determine the quantity of the incorporated sugar. In this evaluation system, when insulin (100 nM) having the effect of increasing the sugar transportation was used, the effect was about 7 times as high as that obtained in the insulin-free control group.
The results of the evaluation of the sugar-transporting activity obtained by using 100 μg/ml of each compound of the present invention are shown in Table 6. The sugar transporting activity in Table 6 was evaluated on the basis of the reinforcing effect of insulin (100 nM). […] The symbols in Table 6 are as follows: • No: Example No., and • A: sugar transporting activity.
The results of the evaluation of the sugar-transporting activity obtained by using each compound of the present invention are shown in Table 7. The sugar transporting activity in Table 7 was determined in terms of the concentration (EC50: μg/ml) of a test compound, having a reinforcing effect corresponding to 50% on the basis of the reinforcing effect of insulin having a reinforcing effect of 100%.

SMILES | activation at 100 µg/mL
O=C1NCC2=C1C(c1ccc(Cl)cc1)Nc1ccccc1N2 (centres unmarked) [Example 2] | 20 to 40%
CCCCCCCCCCCCOc1ccc(C2Nc3ccccc3NC3=C2C(=O)NC3)cc1 (centres unmarked) [Example 11] | 40 to 70%
O=C1NCC2=C1C(c1ccc(OCCC3CCCCC3)cc1)Nc1ccccc1N2 (centres unmarked) [Example 16] | 40 to 70%
CN1C2=C(C(=O)NC2)C(c2ccc(Br)cc2)Nc2ccccc21 (centres unmarked) [Example 44] | 20 to 40%
O=C1NCC2=C1C(c1ccc(I)cc1)Nc1ccccc1N2 (centres unmarked) [Example 3] | 20 to 40%
CCCOc1ccc(C2Nc3ccccc3NC3=C2C(=O)NC3)c(OCC)c1 (centres unmarked) [Example 26] | 40 to 70%
CC(C)(C)c1ccc(C2Nc3ccccc3NC3=C2C(=O)NC3)c(Cl)c1 (centres unmarked) [Example 30] | 20 to 40%
CCCCOc1ccc(C2Nc3ccccc3NC3=C2C(=O)NC3)c(OCC)c1 (centres unmarked) [Example 23] | ≥ 70%
O=C1NCC2=C1C(c1ccc(-c3ccc([N+](=O)[O-])cc3)cc1)Nc1ccccc1N2 (centres unmarked) [Example 8] | ≥ 70%

Same assay, conditions: concentration having a reinforcing effect corresponding to 50% of the reinforcing effect of insulin (100%); rat adipose cells

SMILES | A: sugar transporting activity (EC50)
CCOc1ccccc1[C@@H]1C2=C(CNC2=O)N[C@@H]2CCCC[C@H]2N1C(=O)OC [Example 95] | 1.5 µg/mL
CCOCC(=O)N1[C@@H]2CCCC[C@H]2NC2=C(C(=O)NC2)[C@H]1c1ccc(F)cc1OC [Example 108] | 7.8 µg/mL
CCOc1ccccc1[C@@H]1C2=C(CNC2=O)N[C@@H]2CCCC[C@H]2N1C(=O)CC [Example 88] | 1.9 µg/mL
CCOCC(=O)N1[C@@H]2CCCC[C@H]2NC2=C(C(=O)NC2)[C@H]1c1ccccc1O [Example 104] | 1 µg/mL
COCC(=O)N1[C@@H]2CCCC[C@H]2NC2=C(C(=O)NC2)[C@H]1c1ccccc1OC [Example 53] | 2 µg/mL
COc1ccccc1[C@@H]1C2=C(CNC2=O)N[C@@H]2CCCC[C@H]2N1C(=O)OCc1ccccc1 [Example 82] | 6 µg/mL
COc1cccc([C@@H]2C3=C(CNC3=O)N[C@@H]3CCCC[C@H]3N2C(C)=O)c1OC [Example 114] | 12 µg/mL
CC(=O)N1[C@@H]2CCCC[C@H]2NC2=C(C(=O)NC2)[C@H]1c1ccccc1O [Example 105] | 3.7 µg/mL
CCCC(=O)N1[C@@H]2CCCC[C@H]2NC2=C(C(=O)NC2)[C@H]1c1ccccc1OC [Example 47] | 4.6 µg/mL
CC(=O)N1[C@@H]2CCCC[C@H]2NC2=C(C(=O)NC2)[C@H]1c1ccccc1OC(C)C [Example 98] | 14 µg/mL
COc1ccccc1[C@@H]1C2=C(CNC2=O)N[C@@H]2CCCC[C@H]2N1C(=O)C(F)(F)F [Example 48] | 4.5 µg/mL
COc1ccccc1[C@@H]1C2=C(CNC2=O)N[C@@H]2CCCC[C@H]2N1C(=O)c1cnccn1 [Example 79] | 8.6 µg/mL
COc1ccccc1[C@@H]1C2=C(CNC2=O)N[C@@H]2CCCC[C@H]2N1C(=O)COC(C)=O [Example 52] | 5.9 µg/mL

Further lines, results first:

A: sugar transporting activity (EC50) | SMILES
12 µg/mL | CC(=O)N1[C@@H]2CCCC[C@H]2NC2=C(C(=O)NC2)[C@H]1c1ccccc1N [Example 158]
8.6 µg/mL | CCOCC(=O)N1[C@@H]2CCCC[C@H]2NC2=C(C(=O)NC2)[C@H]1c1ccccc1Br [Example 137]
17 µg/mL | CC(=O)N1[C@@H]2CCCC[C@H]2NC2=C(C(=O)NC2)[C@H]1c1ccc(Br)cc1 [Example 161]
2.4 µg/mL | COC(=O)N1[C@@H]2CCCC[C@H]2NC2=C(C(=O)NC2)[C@H]1c1ccccc1Cl [Example 147]
5 µg/mL | COCC(=O)N1[C@@H]2CCCC[C@H]2NC2=C(C(=O)NC2)[C@H]1c1ccccc1Cl [Example 144]
0.5 µg/mL | O=C1NCC2=C1[C@@H](c1ccccc1Br)N(C(=O)CC(F)(F)F)[C@@H]1CCCC[C@H]1N2 [Example 134]
2 µg/mL | COC(=O)N1[C@@H]2CCCC[C@H]2NC2=C(C(=O)NC2)[C@H]1c1ccccc1F [Example 151]
6 µg/mL | CC(=O)N1[C@@H]2CCCC[C@H]2NC2=C(C(=O)NC2)[C@H]1c1ccccc1Br [Example 139]
6 µg/mL | CCc1ccccc1[C@@H]1C2=C(CNC2=O)N[C@@H]2CCCC[C@H]2N1C(=O)COC [Example 130]
6 µg/mL | COCC(=O)N1[C@@H]2CCCC[C@H]2NC2=C(C(=O)NC2)[C@H]1c1ccccc1C [Example 122]
0.060 µg/mL | CCOc1ccccc1[C@@H]1C2=C(CNC2=O)N[C@@H]2CCCC[C@H]2N1C(=O)CCc1nccs1 [Example 172]
6 µg/mL | CCOCC(=O)N1[C@@H]2CCCC[C@H]2NC2=C(C(=O)NC2)[C@H]1c1ccc(Cl)cc1 [Example 163]
5.4 µg/mL | CCOCC(=O)N1[C@@H]2CCCC[C@H]2NC2=C(C(=O)NC2)[C@H]1c1ccccc1CC [Example 129]
